ChEMBL document CHEMBL5512630, “The mechanism of UNC-51-like kinase 1 and the applications of small molecule modulators in cancer treatment” (Eur J Med Chem, 2024)

How the values were obtained:
[1] = tested on: Non-small cell lung cancer cell line; experiment: Antiproliferative activity against Non-small cell lung cancer cells (unknown origin); assay type: functional, cell-based
[2] = target: T1, Serine/threonine-protein kinase ULK1 (Homo sapiens) (UniProt O75385); experiment: Inhibition of ULK1 (unknown origin) relative to control; details: concentration not given here
T1 sequence (whole entry): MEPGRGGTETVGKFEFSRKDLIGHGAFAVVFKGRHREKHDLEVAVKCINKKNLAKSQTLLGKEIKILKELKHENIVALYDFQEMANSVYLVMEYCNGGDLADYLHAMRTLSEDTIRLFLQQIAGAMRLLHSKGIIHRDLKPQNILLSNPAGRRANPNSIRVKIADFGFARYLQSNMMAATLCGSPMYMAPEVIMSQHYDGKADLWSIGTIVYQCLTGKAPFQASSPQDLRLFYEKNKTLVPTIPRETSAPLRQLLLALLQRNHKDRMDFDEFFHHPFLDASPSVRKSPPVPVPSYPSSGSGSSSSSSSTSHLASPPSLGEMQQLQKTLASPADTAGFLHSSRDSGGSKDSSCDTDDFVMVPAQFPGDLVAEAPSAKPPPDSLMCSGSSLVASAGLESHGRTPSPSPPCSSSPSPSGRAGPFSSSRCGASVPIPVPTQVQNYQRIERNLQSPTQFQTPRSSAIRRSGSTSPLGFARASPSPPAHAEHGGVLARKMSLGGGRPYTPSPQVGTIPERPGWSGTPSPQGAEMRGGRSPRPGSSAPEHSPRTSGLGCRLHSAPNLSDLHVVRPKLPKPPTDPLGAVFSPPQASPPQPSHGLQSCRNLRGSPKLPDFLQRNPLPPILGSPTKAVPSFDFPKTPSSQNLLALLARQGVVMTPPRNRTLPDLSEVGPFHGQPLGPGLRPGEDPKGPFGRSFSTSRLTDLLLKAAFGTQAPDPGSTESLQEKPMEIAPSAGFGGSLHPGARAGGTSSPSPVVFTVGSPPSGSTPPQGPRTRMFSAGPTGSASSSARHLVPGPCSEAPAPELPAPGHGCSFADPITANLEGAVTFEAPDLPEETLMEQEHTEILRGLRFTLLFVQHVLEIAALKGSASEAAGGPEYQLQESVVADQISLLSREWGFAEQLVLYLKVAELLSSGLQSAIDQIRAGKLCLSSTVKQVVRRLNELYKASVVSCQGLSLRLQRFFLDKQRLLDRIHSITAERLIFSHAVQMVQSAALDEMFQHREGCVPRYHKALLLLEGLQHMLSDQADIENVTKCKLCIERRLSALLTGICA

Row | inhibition [2] [%] | Structure (SMILES) | IC50 [1] [nM]
1 | – | C=CC(=O)Nc1cc(Nc2nccc(-c3cn(C)c4ccccc34)n2)c(OC)cc1N(C)CCN(C)C [OSIMERTINIB] | 41
2 | 75 | O=c1c(O)c(-c2ccc(O)c(O)c2)oc2cc(O)ccc12 | –
